Measurements taken from patent publication US20120010161A1, “NOVEL AZAPEPTIDE OR AZAPEPTIDOMIMETIC COMPOUNDS INHIBITING BCRP AND/OR P-GP” (CENTRE NATIONAL DE LA RECHERCHE SCIENTIFIQUE, priority 2009, published 2012).

How the values were obtained:
MRP1/ABCC1 = target: T1, MRP1/ABCC1 (Homo sapiens, UniProt P33527); assay: Flow cytometry: daunorubicin efflux induced by ABCC1 in transfected BHK21 cells; type: cell-based; details: probe daunorubicin (1 μM), 10 μM compound, read-out: MRP1/ABCC1 % efficacy 10 μM
T1 construct: His; expressed in transfected cells; host or cells: BHK21 (newborn hamster kidney) transfected with pNUT-MRP/His
Description: Cell cultures. The human […] HEK-293 transfected with the vector pcDNA3.1 including or not the gene encoding ABCG2 (Robey, R. W., Honjo, Y., Morisaki, K., Nadjem, T. A., Runge, S., Risbood, M., Poruchynsky, M. S., Bates, S. E. 2003, Br. J. Cancer 89(10) 1971-1978) was used to test the efficacy of the products on ABCG2. The newborn hamster kidney cell line BHK21 either natural (negative control) or transfected with the vector pNUT-MRP/His expressing the gene encoding ABCC1 (Chang, Xiu-Bao, Hou, Yue-Xian, Riordan, John R. 1997, J. Biol. Chem. 272(49) 30962-30968) was used to test the efficacy of the products on ABCC1. The cell line NIH3T3 natural or transfected with the vector pHaMDR1/A expressing ABCB1 (Cardarelli, Carol O., Aksentijevich, Ivan, Pastan, Ira, Gottesman, Michael M. 1995 Cancer Res. 55 1086-1091) was used to test the efficacy of the compounds on ABCB1. […]
FIG. 1 schematically illustrates an efflux of substrate induced by a typical ABC transporter. The substrates S, such as mitoxantrone effluxed with ABCG2 and ABCB1 or daunorubicin effluxed with ABCC1, are accumulated in the cells and expelled by the transporter T, leading to a decrease in intracellular fluorescence. In the case of accumulation of the product, typically by inhibition of the efflux protein, the intracellular fluorescence increases.
Flow cytometry. […] The drug intracellular fluorescence is measured with a FACscan flow cytometer (Becton Dickinson, Mountain View, Calif.). The fluorescent substrates are excited at 488 nm; the fluorescence emission of mitoxantrone (MTX) is measured at 650 nm and that of daunorubicin is measured at 530 nm. […]
in which: • FA corresponds to the intracellular level of substrate measured in the cells overexpressing the transporter T (corresponding to the lowest level of fluorescence in the absence of inhibitor), • FC corresponds to the fluorescence in the control cells not expressing the test transporter. […]

HEK-293 cells = assay: Cytotoxicity on cell growth, MTT test; type: cell-based, human; details: 72 hours; for harmlessness / toxicity on HEK-293 cells: cells expressing or not ABCG2
Experimental: The cells are seeded (10 000 cells/well) in 96-well plates and incubated for 24 hours at 37° C. under 5% CO2. Varied concentrations of mitoxantrone (from 0 to 20 μM in a constant final volume of 100 μL) are then added with an equal volume of each of the test compounds. The cells are then left to divide for 72 hours. The cytotoxicity is evaluated colorimetrically with 3-(4,5-dimethylthiazol-2-yl)-2,5-diphenyltetrazolium bromide (MTT).
Increasing concentrations of compound (IA.2) are applied to HEK-293 cells expressing or not expressing ABCG2, and whose residual vitality is evaluated after 72 hours of treatment by an MTT test. The results are illustrated in FIG. 4, in which the cells expressing ABCG2 are represented by empty circles, and those not expressing it by solid circles. […] This absence of toxicity is observed even at a very high concentration such as 40 μM, which corresponds to 40 times the IC50 value.
Increasing concentrations of compound (IA.1) are applied to HEK-293 cells expressing or not expressing ABCG2, and whose residual vitality is evaluated after 72 hours of treatment by an MTT test. The results are illustrated in FIG. 6, in which the cells expressing ABCG2 are represented by empty circles, and those not expressing it by solid circles.
Increasing concentrations of compound (IB.1) are applied to HEK-293 cells expressing or not expressing ABCG2, and whose residual vitality is evaluated after 72 hours of treatment by an MTT test. The results are illustrated in FIG. 8, in which the cells expressing ABCG2 are represented by empty circles and those not expressing it by solid circles.
Increasing concentrations of compound (IB.11) are applied to HEK-293 cells expressing or not expressing ABCG2, and whose residual vitality is evaluated after 72 hours of treatment by an MTT test. The results are illustrated in FIG. 10, in which the cells expressing ABCG2 are represented by empty circles, and those not expressing it by solid circles.

T1 sequence (P33527 whole entry): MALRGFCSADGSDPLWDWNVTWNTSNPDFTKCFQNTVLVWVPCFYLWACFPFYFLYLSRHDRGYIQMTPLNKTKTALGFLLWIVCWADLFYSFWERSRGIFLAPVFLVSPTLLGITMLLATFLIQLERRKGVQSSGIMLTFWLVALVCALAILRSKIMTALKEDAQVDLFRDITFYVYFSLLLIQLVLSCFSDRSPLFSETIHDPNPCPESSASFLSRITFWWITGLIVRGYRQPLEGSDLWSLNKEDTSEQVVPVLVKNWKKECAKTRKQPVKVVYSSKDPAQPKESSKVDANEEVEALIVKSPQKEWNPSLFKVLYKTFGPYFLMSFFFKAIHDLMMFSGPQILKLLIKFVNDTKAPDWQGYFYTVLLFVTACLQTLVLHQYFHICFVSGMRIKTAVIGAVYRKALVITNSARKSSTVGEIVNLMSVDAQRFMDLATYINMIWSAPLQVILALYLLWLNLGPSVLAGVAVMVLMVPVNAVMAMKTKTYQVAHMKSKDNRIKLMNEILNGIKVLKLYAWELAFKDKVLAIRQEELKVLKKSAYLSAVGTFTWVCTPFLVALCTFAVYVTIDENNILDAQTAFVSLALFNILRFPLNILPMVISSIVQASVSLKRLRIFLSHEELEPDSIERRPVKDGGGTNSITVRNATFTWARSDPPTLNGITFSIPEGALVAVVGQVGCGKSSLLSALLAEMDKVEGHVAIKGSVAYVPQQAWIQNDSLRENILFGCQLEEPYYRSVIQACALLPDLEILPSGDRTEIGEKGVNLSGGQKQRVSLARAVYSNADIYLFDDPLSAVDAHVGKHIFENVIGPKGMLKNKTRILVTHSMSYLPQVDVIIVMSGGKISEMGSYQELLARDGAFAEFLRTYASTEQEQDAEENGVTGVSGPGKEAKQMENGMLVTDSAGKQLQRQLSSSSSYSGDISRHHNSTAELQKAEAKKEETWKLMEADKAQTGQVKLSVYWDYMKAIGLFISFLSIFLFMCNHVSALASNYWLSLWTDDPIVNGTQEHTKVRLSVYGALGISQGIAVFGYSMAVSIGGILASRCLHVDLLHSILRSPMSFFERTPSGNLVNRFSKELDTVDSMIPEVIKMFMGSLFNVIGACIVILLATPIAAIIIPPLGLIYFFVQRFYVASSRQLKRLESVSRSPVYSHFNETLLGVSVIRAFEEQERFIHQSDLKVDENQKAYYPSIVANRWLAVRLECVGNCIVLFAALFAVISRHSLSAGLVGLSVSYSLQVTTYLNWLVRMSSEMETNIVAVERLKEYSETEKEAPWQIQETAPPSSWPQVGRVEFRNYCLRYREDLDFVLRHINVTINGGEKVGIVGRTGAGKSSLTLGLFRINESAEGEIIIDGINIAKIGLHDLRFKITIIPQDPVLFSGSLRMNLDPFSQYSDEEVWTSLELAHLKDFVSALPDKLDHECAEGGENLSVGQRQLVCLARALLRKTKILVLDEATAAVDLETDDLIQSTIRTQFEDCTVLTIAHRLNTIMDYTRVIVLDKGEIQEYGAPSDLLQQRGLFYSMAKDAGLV

## CC(C)(C)OC(=O)N[C@H](CNN(CCCCCCNC(=O)OCc1ccccc1)C(=O)OC(C)(C)C)CC(=O)OCc1ccccc1 [IB.1, Benzyl ester of (3S)-4-[2-(6-benzyloxycarbonylaminohexyl)-2-tert-butoxycarbonylhydrazino]-3-tert-butoxycarbonylaminobutyric acid]
MRP1/ABCC1
  inhibition at 10 μM: 5 ± 1%
HEK-293 cells; at 40 times the IC50
  cytotoxicity on HEK-293 cells: relative cytotoxicity
HEK-293 cells
  harmlessness / toxicity on HEK-293 cells: harmlessness
HEK-293 cells; up to 20 times its IC50, expressing or not ABCG2
  cytotoxic effect on HEK-293 cells: no cytotoxic effect

## CC(C)(C)OC(=O)NN(C(=O)N[C@@H](CCCCNC(=O)OCc1ccccc1)C(=O)OC(C)(C)C)c1cccc(C(=O)OCc2ccccc2)c1 [IA.2, tert-Butyl ester of (2S)-6-(benzyloxycarbonylamino)-2-[1-(3′-(benzyloxycarbonyl)phenyl)-2-(tert-butoxycarbonyl)hydrazino-carbonylamino]hexanoic acid]
MRP1/ABCC1
  inhibition at 10 μM: 5 ± 1%
HEK-293 cells
  harmlessness / toxicity on HEK-293 cells: harmlessness
HEK-293 cells; up to 40 μM (40 times the IC50), expressing or not ABCG2
  cytotoxicity on HEK-293 cells: absolutely not cytotoxic

## CC(C)(C)OC(=O)NN(C(=O)N[C@@H](CCCCNC(=O)OCc1ccccc1)C(=O)OC(C)(C)C)c1ccccc1C(=O)OCc1ccccc1 [IA.1, tert-Butyl ester of (2S)-6-(benzyloxycarbonylamino)-2-[1-(2′-(benzyloxycarbonyl)phenyl)-2-(tert-butoxycarbonyl)hydrazino-carbonylamino]hexanoic acid]
MRP1/ABCC1
  inhibition at 10 μM: 14 ± 3%
HEK-293 cells
  harmlessness / toxicity on HEK-293 cells: harmlessness
HEK-293 cells; concentration range tested, more than 10 times its IC50, expressing or not ABCG2
  cytotoxic effect on HEK-293 cells: no cytotoxic effect

## CC(C)(C)OC(=O)N[C@H](CNN(CCCCCCNC(=O)OCc1ccccc1)C(=O)OCc1ccccc1)CC(=O)OCc1ccccc1 [IB.11, Benzyl ester of (3S)-4-[2-benzyloxycarbonyl-2-(6-benzyloxycarbonylaminohexyl)hydrazino]-3-tert-butoxycarbonyl-aminobutyric acid]
HEK-293 cells
  harmlessness / toxicity on HEK-293 cells: harmlessness
HEK-293 cells; concentration range tested, more than 80 times its IC50, expressing or not ABCG2
  cytotoxic effect on HEK-293 cells: no cytotoxic effect
